Patent publication US20100160391A1, “Substituted Aminopyridines as Fluorescent Reporters for Amide Hydrolases” (priority 2006, published 2010)
Marks after values point to notes of the source that are not given here.

Experiments:
[1] = Maximal excitation and emission wavelengths; assay type: physicochemical; conditions: 50 μM in 0.1 M phosphate buffer, 30° C.; SD ±2 nm
Procedure: Maximal excitation and emission wavelengths. A stock solution in ethanol of each compound (10 μl, 5 mM) was added to 990 μl of sodium phosphate buffer (0.1 M, pH 8.0, final substrate concentration 50 μM) in a 1-cm quartz cuvette. The quartz cuvette was scanned from 200 to 500 nm for absorption spectra with a Spectra Max M2 spectrophotometer. Maximal excitation and emission wavelengths were obtained from scanning from 250 to 600 nm and 360 to 600 nm by a 2 nm interval at 30° C., respectively.

[2] = Fluorescence quantum yield; assay type: physicochemical; conditions: 10 μM, 1% ethanol in water, excitation 290 nm, standard 3-aminopyridine; SD under ±5%
Procedure: Quantum yield. The fluorescence quantum yield, φf, was calculated according to the following equation:
ØF=Østd*(I/Istd)*(ODstd/OD)*(n/nstd)^2,
wherein ØF is the quantum yield of the tested fluorescent reporter; Østd is the fluorescence quantum yield of the standard; I and Istd are the integrated emission intensities of the sample and the standard, respectively; OD and ODstd are the absorbance of the sample and standard, respectively, at the desired wavelength λex; and n and nstd are the indexes of refraction of the sample and standard solutions, respectively (Horspool and Song (Eds.), CRC Handbook of Organic Photochemistry I, pp 234-235, CRC Press, Boca Raton, Fla., 1995).
In this example, 3-aminopyridine in water at the maximal excitation wavelength of 290 nm was used as a standard (Østd=0.32, εmax=2800 M^−1 cm^−1) (see, e.g., Weisstuch et al., J. Phys. Chem., 72:1982-1987 (1968)). In order to minimize inner filter effects, the optical densities of samples at the excitation wavelength (λ=290 nm) were kept in the range of 0.095-0.13 (less than 0.150-0.165). The final concentration of each tested sample in a quartz cuvette was 10 μM with 1% ethanol in water, same as that for the standard. The integrated area of fluorescent intensity for the standard or the samples was based on the area between 360 and 500 nm. The difference of the index of refraction between the standard and the sample was neglected because (1) all measurements were performed in the same quartz cuvette and spectrofluorimeter; (2) the final concentrations of the sample and the standard were the same; and (3) the structures of the sample and standard were very similar, i.e., only one pyridine ring. The quantum yields presented in Table 1 were based on calculation of the average of OD and integrated fluorescent intensities of triplicates. The standard deviation for each quantum yield was less than ±5%.

[3] = Molar extinction coefficient of fluorescent reporters; assay type: physicochemical; conditions: H2O containing 1% ethanol, 290 nm, 30° C., 10-50 μM
Procedure: Molar extinction coefficient. According to Beer's law, Aλ=ε*C*L, where Aλ is the absorbance at wavelength (λ nm); ε is called the molar extinction coefficient; L is the width of the sample cuvette; and C is the concentration of the solute. In this example, a series of concentrations falling between 10 and 50 μM (final concentration) for each fluorescent reporter was used for determination of the molar extinction coefficient. Assays were performed in a quartz cuvette (1 cm optical passage). 10 μl of a stock solution of a reporter in ethanol (1, 2, 3, 4, or 5 mM) was added to 990 μl H2O. The resulting mixture was degassed by sonication with ultrasonic cleaner Model 750 (VWR International; Wester, Pa.) for 10 seconds at a power level of 9. Measurements were performed with a Spectra Max M2 spectrophotometer (Molecular Devices; Sunnyvale, Calif.) at a wavelength of 290 nm. A slope (or extinction coefficient) was obtained by using an average absorbance of triplicate samples.

[4] = target: T1, L-Leucine aminopeptidase from porcine kidney microsomes (Sus scrofa, UniProt P15145); assay: Sensitivity of L-Leucine aminopeptidase toward colorimetric and fluorescent substrates; assay type: biochemical; conditions: for base line, Average: 0 min; for base line, Average / signal, Average: 25 μM; for signal, Average: 10 min; for Protein, lowest detection limit of L-Leucine aminopeptidase (signal at 10 min ≥ 3 times base line): substrate 25 μM
T1 construct: purchased Sigma-Aldrich L5006; host or cells: porcine kidney microsomes
T1 sequence (P15145 1-963): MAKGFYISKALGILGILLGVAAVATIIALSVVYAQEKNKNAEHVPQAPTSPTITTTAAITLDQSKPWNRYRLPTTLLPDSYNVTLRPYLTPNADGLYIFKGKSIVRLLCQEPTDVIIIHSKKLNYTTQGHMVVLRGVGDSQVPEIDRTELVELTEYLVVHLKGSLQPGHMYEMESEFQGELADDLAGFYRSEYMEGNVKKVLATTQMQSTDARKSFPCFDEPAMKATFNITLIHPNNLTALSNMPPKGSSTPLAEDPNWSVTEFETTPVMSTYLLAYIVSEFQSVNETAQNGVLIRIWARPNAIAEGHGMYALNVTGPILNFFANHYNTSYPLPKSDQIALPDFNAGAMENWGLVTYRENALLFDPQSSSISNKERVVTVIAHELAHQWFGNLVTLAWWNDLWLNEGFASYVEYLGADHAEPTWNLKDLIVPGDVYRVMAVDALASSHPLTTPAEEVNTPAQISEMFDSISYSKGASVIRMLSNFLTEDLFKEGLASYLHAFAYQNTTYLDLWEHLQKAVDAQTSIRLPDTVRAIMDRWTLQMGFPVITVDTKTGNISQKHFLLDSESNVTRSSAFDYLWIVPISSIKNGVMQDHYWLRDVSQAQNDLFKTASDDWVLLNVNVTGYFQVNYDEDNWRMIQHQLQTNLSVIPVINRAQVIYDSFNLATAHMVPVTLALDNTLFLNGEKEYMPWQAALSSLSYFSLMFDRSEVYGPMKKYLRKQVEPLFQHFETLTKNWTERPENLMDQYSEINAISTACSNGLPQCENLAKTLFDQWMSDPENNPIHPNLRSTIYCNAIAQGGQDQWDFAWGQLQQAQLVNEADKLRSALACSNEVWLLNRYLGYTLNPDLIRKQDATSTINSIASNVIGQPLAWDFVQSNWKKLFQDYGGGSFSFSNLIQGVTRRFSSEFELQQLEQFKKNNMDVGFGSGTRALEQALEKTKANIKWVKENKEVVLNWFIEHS
Procedure: Comparison of the sensitivities of L-Leucine aminopeptidase toward colorimetric and fluorescent substrates. In general, all assays were performed in 96-well styrene flat-bottom microtiter plates using a Spectra Max M2 spectrophotometer at 37° C. for 10 min. The total volume of each well was 201 μl containing 0.1 M sodium phosphate buffer (190 μl, pH 7.2), stock or diluted protein solution (10 μl), and 5 mM of the substrate solution (1 μl) in either ethanol for substrates (18) and (19). The lowest detection limit of microsomal L-Leucine aminopeptidase by substrates was determined by the fact that the signal at 10 min was equal to or over 3 times the basal line at 0 min. Colorimetric substrates assays (e.g., (20)) were performed in clear 96-well microtititer plates using an absorbance wavelength of 382 nm. The fluorescent substrates containing 5-amino-2-methoxypyridine (e.g., (19)) were measured at an excitation wavelength (302 nm), emission wavelength (396 nm), and auto cutoff wavelength (325 nm). Similarly, the fluorescent substrates containing 5-amino-2-methoxy-6-methylpyridine (e.g., (18)) were measured at an excitation wavelength (304 nm), emission wavelength (392 nm), and auto cutoff wavelength (325 nm).

[5] = pH 7.2, 37° C., protein 1.97 (18), 0.018 (19) μg/well
[6] = absorbance 382 nm, protein 1.97 μg/well

Structure (SMILES)	Em, maximal emission wavelength [1] [nm]	Ex, maximal excitation wavelength [1] [nm]	ØF, fluorescence quantum yield [2]	εmax, molar extinction coefficient [3] [M⁻¹ cm⁻¹]	Protein, lowest detection limit of L-Leucine aminopeptidase (signal at 10 min ≥ 3 times base line) ([4]; pH 7.2, 37° C.) [μg/200 μL]	further results
Cc1ccc(N)cn1 [Compound 3, 3-amino-6-methylpyridine]	384	290	0.62	2700		
COc1ccc(NC(=O)[C@@H](N)CC(C)C)cn1 [Compound 19, N-(6-methoxypyridin-3-yl), (S)-2-amino-4-methylpentanamide]					0.018	base line, Average [4, 5]: 67 RFU/sec; signal, Average [4, 5]: 228* RFU/sec; times more sensitive than substrate (20) ([4]; Table 5): at least 100 times
COc1ccc(NC(=O)[C@@H](N)CC(C)C)c(C)n1 [Compound 18, N-(6-methoxy-2-methylpyridin-3-yl), (S)-2-amino-4-methylpentanamide]					1.97	base line, Average [4, 5]: 164 RFU/sec; signal, Average [4, 5]: 494* RFU/sec
COc1ccc(NC(C)=O)c(C)n1 [Compound 11, N-(6-methoxy-2-methylpyridin-3-yl) acetamide]						melting point: 130.1 to 130.4 °C
CC(C)C[C@H](N)C(=O)Nc1ccc([N+](=O)[O-])cc1 [Compound 20, L-Leucine-p-nitroanilide]					1.97	base line, Average [4, 6]: 0.08 OD; signal, Average [4, 6]: 0.24* OD
Cc1ccncc1N [Compound 2, 3-amino-4-methylpyridine]	376	280	0.53	2580		

More lines, main results first:

Em, maximal emission wavelength [1] [nm]	Ex, maximal excitation wavelength [1] [nm]	ØF, fluorescence quantum yield [2]	εmax, molar extinction coefficient [3] [M⁻¹ cm⁻¹]	Protein, lowest detection limit of L-Leucine aminopeptidase (signal at 10 min ≥ 3 times base line) ([4]; pH 7.2, 37° C.) [μg/200 μL]	Structure (SMILES)	further results
392	304	0.97	4130		COc1ccc(N)c(C)n1 [Compound 8, 3-amino-6-methoxy-2-picoline]	
378	284	0.27	4670		COc1ncccc1N [Compound 7, 3-amino-2-methoxypyridine]	
374	282	0.04	3670		Nc1cccnc1F [Compound 4, 3-amino-2-fluoropyridine]	
384	292	0.72	2360		Nc1ccc(F)nc1 [Compound 5, 5-amino-2-fluoropyridine]	
